For data set [1], the system named is Fischer F344 inbred rats. Put plainly: Spatial memory, rewarded alternation in T-maze, aged rats. It counts as in vivo. To be noted: for T-maze alternation: 200 mg/Kg in water, 6 weeks supplementation; for spatial memory vs control rats: aged F344 rats, 200 mg/Kg, T-maze. The protocol: Spatial memory was measured by alternation in a T-maze. […] Both aged groups supplemented with malic acid performed equivalently to non-impaired rats, at 85% correct alternation, or better.
24 male Fischer F344 inbred rats were evaluated at 10 months and 23 months of age. Half were provided supplemental dietary malate. Following 6 weeks supplementation, spatial memory was evaluated using a rewarded alternation procedure in a T-maze apparatus (10 trials per subject). Healthy, non-impaired, rats alternate at 85% while hippocampectomized rats incapable of encoding spatial memories alternate at chance, 50%. […] The 23 month old, control, rats were severely impaired, hardly scoring better than chance, at 57% alternation. 23 month old malate-supplemented rats alternated at 85%, a score equivalent to a young, not impaired rat. (FIG. 10).

Data set [2] deals with neutral sphingomyelinase (nSMase). Description: nSMase-mediated ceramide release in TNF-α-treated neuroblastomas. Type of data set: cell-based. To be noted: neuroblastomas treated with TNF-α in conjunction with citrate or malate at 0.5 μg/ml. As to the method:
Neuroblastomas were not treated (NT) or treated with tumor necrosis factor α (TNF-α), either alone or in conjunction with citrate or malate at 0.5 μg/ml.
Ceramides and ceramide metabolites are important intracellular signaling molecules which influence inflammation, proliferative and apoptotic processes, neurodegeneration, and insulin sensitivity. Elevated ceramides are associated with neurodegenerative disorders including Alzheimer's and Parkinson's disease as well as normal aging.

Data set [3] deals with SH-SY5Y human neuroblastoma cells. Put plainly: Intracellular malate after malate pretreatment and peroxide insult. It counts as cell-based. As to the method:
Intracellular malate decreases 20% in the first 30 minutes following peroxide treatment and continues to slowly decrease over the rest of the time course. SH-SY5Y human neuroblastoma cells were grown to 90% confluency on 100 mm tissue culture dishes in 10% FBS supplemented DMEM, serum starved for 12 hours, and treated with 100 μM H2O2 in serum free DMEM for either 0, 15, 30, 45, 60, or 90 minutes. All treatments were performed in triplicate. Following treatment, neurons were rinsed with PBS, harvested and evaluated for total […] via abcam malate assay kit (ab83391). […] Cells were treated with 0.5 μg/mL malate in serum free DMEM for 1 hour prior to peroxide insult. Malate supplementation increased intracellular malate by nearly 50%.

A short description of data set [4]: Tolerability of oral malate in aged rats. It counts as in vivo. To be noted: 24 aged rats, 200 mg/Kg orally, voluntary consumption in water.
The subject of data set [5] is SH-SY5Y human neuroblastoma cells. Description: Intracellular GSH after malate pretreatment and peroxide insult. It counts as cell-based. To be noted: 0.5 μg/mL malate for 1 hour prior to peroxide insult. The protocol:
GSH is widely considered the cornerstone of endogenous redox defense. Intracellular concentrations of total GSH clearly decrease in response to oxidative insult, confirming GSH is actively consumed as part of the endogenous redox defense response in human neurons, specifically to produce regenerate antioxidative enzymes. […] All treatments were performed in triplicate. Following treatment, neurons were rinsed with PBS and evaluated for total GSH (excluding GSSG) via Promega GSH-Glo Glutathione Assay. The assay is based on the conversion of a lucifin derivative into lucifierin in the presence of GSH. […] Cells were treated with 0.5 μg/mL malate in serum free DMEM for 1 hour prior to peroxide insult.

Entries after “also recorded” stand apart in the source; their conditions may differ.

As to `O=C(O)CC(O)C(=O)O` (stereo not shown) [malate, malic acid], the T-maze alternation in data set [1] (10 month old F344 rats) is 92.5%; in data set [1] (23 month old F344 rats), 85%. Further, the “spatial memory vs control rats” value was “statistically significant improvement in spatial memory” in data set [1] and “significantly improves performance in spatial memory” in data set [1] (listed as malic acid). Also, the T-maze correct alternation in data set [1] (both aged groups (10 and 23 months), oral 200 mg/Kg) is reported as not below 85%. Also, in data set [2], the “nSMase-mediated ceramide release / nSMase activation” value is listed as “significantly decrease; also recorded: able to curb nSMase activation”. Moreover, the “intracellular malate after peroxide insult” value in data set [3] (0.5 μg/mL malate for 1 hour prior to peroxide insult) was “higher levels than non-treated and non-insulted cells; also recorded: prevent critical depletion of malate”. Moreover, the “increase of intracellular malate” value in data set [3] (0.5 μg/mL malate in serum free DMEM for 1 hour) is approximately 50%. For the same compound, the ill effects observed result in data set [4] is “no ill effects were observed”. The “intracellular GSH after peroxide insult” value in data set [5] is “higher levels of GSH than non-treated and non-insulted cells; also recorded: prevent critical depletion of GSH”. Further, the “intracellular GSH vs non-supplemented cells” value in data set [5] (0-60 minutes post peroxide) was “significantly higher levels of GSH than non-supplemented cells; also recorded: increase intracellular pools of GSH”.

With `O=C(O)CC(O)(CC(=O)O)C(=O)O` [citrate, citric acid], the “nSMase-mediated ceramide release / nSMase activation” value was “able to curb nSMase activation” in data set [2] and “significantly decrease” in data set [2] (listed as Citrate).

The record behind these values is patent US20140243400A1, “COMPOSITIONS COMPRISING CITRIC ACID AND MALIC ACID AND METHODS AND USES THEREOF” (University of Alaska Anchorage, priority 2013, published 2014).
